Measurements: patent US20250171417A1, “HETEROCYCLIC DERIVATIVE, AND COMPOSITION AND PHARMACEUTICAL USE THEREOF” (Xizang Haisco Pharmaceutical Co., Ltd., priority 2021, published 2025)
Read-outs that look alike come from different tables or passages of the source.

Tested on: Prostate cancer cells 22RV1
Assay: Experiment on inhibiting 22RV1 cell proliferation (CellTiter-Glo, 7 days)
Format: cell-based
Conditions: Homo sapiens, 168 h, 22RV1 cells, 7 days incubation, read-out: IC50 values for inhibition of 22RVI cells
Protocol: Prostate cancer cells 22RV1 were purchased from ATCC, the cell medium was RPMI 1640+10% FBS, and the cells were cultured in an incubator at 37° C. under 5% CO2. On day 1, the cells in the exponential growth phase were collected. With a 1% css-FBS phenol red-free medium, the cell suspension was adjusted to a corresponding concentration, plated at 2000 cells/well and incubated overnight. On day 2, compounds at different concentrations were added, and the plate was placed in the incubator and incubated for further 7 days. After the incubation was completed, according to operation instructions for a CellTiter-Glo kit (Promega, G7573), 50 μL of CellTiter-Glo reagents, which were already pre-melted and equilibrated to room temperature, were added to each well, and the mixtures were uniformly mixed for 2 min using a microplate shaker. The plate was placed at room temperature for 10 min. and then […] signal values were measured using a microplate reader (PHERAstar FSX). The results were processed according to formula (I), the inhibition rate of the compound at different concentrations was calculated, and the IC50 value of the compound with an inhibition rate of 50% was calculated using origin9.2 software with DoseResp function, wherein RLUcompound was the readout of the treated group, and RLUcontrol was the average value of the DMSO vehicle control group.

[1] = cells without a unit of their own (μM)
[2] = cells with nM printed beside the value

IC50 [1] [µM]	IC50 [2] [µM]	Structure (SMILES)
< 1		O=C1CCC(N2C(=O)c3ccc(N4CC5CC(CN6CCC(c7cnn(C8(C(=O)Nc9ccc(C(F)(F)F)cc9Cl)CCC8)c7)CC6)CC5C4)cc3C2=O)C(=O)N1 (stereo not shown) [Compound 91, N-(2-chloro-4-(trifluoromethyl)phenyl)-1-(4-(1-((2-(2-(2,6-dioxopiperidin-3-yl)-1,3-dioxoisoindolin-5-yl)octahydrocyclopenta[c]pyrrol-5-yl)methyl)piperidin-4-yl)-1H-pyrazol-1-yl)cyclobutane-1-carboxamide]
< 1		CC(C)(C(=O)Nc1ccc(C(F)(F)F)cc1-c1ccccc1)n1cc(C#CC2CN(c3ccc4c(c3)C(=O)N(C3CCC(=O)NC3=O)C4=O)C2)cn1 (stereo not shown) [Compound 112, 2-(4-((1-(2-(2,6-dioxopiperidin-3-yl)-1,3-dioxoisoindolin-5-yl)azetidin-3-yl)ethynyl)-1H-pyrazol-1-yl)-2-methyl-N-(5-(trifluoromethyl)-[1,1′-biphenyl]-2-yl) propanamide]
	< 0.05	[2H]C1([2H])C([2H])([2H])C(C(=O)Nc2ccc(C(F)(F)F)cc2Cl)(n2cc(C#CC3CN(c4ccc5c(c4)C(=O)N(C4CCC(=O)NC4=O)C5=O)C3)cn2)C1([2H])[2H] (stereo not shown) [Compound 113, N-(2-chloro-4-(trifluoromethyl)phenyl)-1-(4-((1-(2-(2,6-dioxopiperidin-3-yl)-1,3-dioxoisoindolin-5-yl)azetidin-3-yl)ethynyl)-1H-pyrazol-1-yl)cyclobutane-2,2,3,3,4,4-d6-1-carboxamide]
	< 0.05	CC(C)(C(=O)Nc1ccc(C(F)(F)F)cc1C#CC1CC1)n1cc(C#CC2CN(c3ccc4c(c3)C(=O)N(C3CCC(=O)NC3=O)C4=O)C2)cn1 (stereo not shown) [Compound 116, N-(2-(cyclopropylethynyl)-4-(trifluoromethyl)phenyl)-2-(4-((1-(2-(2,6-dioxopiperidin-3-yl)-1,3-dioxoisoindolin-5-yl)azetidin-3-yl)ethynyl)-1H-pyrazol-1-yl)-2-methylpropanamide]
< 1		CC(C)(C(=O)Nc1ccc(C(F)(F)F)cc1-n1cncn1)n1cc(C#CC2CN(c3ccc4c(c3)C(=O)N(C3CCC(=O)NC3=O)C4=O)C2)cn1 (stereo not shown) [Compound 117, N-(2-(1H-1,2,4-triazol-1-yl)-4-(trifluoromethyl)phenyl)-2-(4-((1-(2-(2,6-dioxopiperidin-3-yl)-1,3-dioxoisoindolin-5-yl)azetidin-3-yl)ethynyl)-1H-pyrazol-1-yl)-2-methylpropanamide]
	< 0.05	Cc1c(C#N)ccc(NC(=O)C(C)(C)n2cc(C#CC3CN(c4ccc5c(c4)C(=O)N(C4CCC(=O)NC4=O)C5=O)C3)cn2)c1C (stereo not shown) [Compound 152, N-(4-cyano-2,3-dimethylphenyl)-2-(4-((1-(2-(2,6-dioxopiperidin-3-yl)-1,3-dioxoisoindolin-5-yl)azetidin-3-yl)ethynyl)-1H-pyrazol-1-yl)-2-methylpropanamide]
< 1		CC(C)(C(=O)Nc1ccc(C(F)(F)F)cc1Cl)n1cnc2ccc(C#CC3CN(c4ccc5c(c4)C(=O)N(C4CCC(=O)NC4=O)C5=O)C3)cc21 (stereo not shown) [Compound 161, N-(2-chloro-4-(trifluoromethyl)phenyl)-2-(6-((1-(2-(2,6-dioxopiperidin-3-yl)-1,3-dioxoisoindolin-5-yl)azetidin-3-yl)ethynyl)-1H-benzo[d]imidazol-1-yl)-2-methylpropanamide]
< 1		CC(C)(C(=O)Nc1ccc(C(F)(F)F)cc1Cl)n1cnc2cc(C#CC3CN(c4ccc5c(c4)C(=O)N(C4CCC(=O)NC4=O)C5=O)C3)ccc21 (stereo not shown) [Compound 162, N-(2-chloro-4-(trifluoromethyl)phenyl)-2-(5-((1-(2-(2,6-dioxopiperidin-3-yl)-1,3-dioxoisoindolin-5-yl)azetidin-3-yl)ethynyl)-1H-benzo[d]imidazol-1-yl)-2-methylpropanamide]
	< 0.05	Cc1c(C#CC2CN(c3ccc4c(c3)C(=O)N(C3CCC(=O)NC3=O)C4=O)C2)cnn1C1(C(=O)Nc2ccc(C(F)(F)F)cc2Cl)CCC1 (stereo not shown) [Compound 163, N-(2-chloro-4-(trifluoromethyl)phenyl)-1-(4-((1-(2-(2,6-dioxopiperidin-3-yl)-1,3-dioxoisoindolin-5-yl)azetidin-3-yl)ethynyl)-5-methyl-1H-pyrazol-1-yl)cyclobutane-1-carboxamide]
	< 0.1	CC(C)(C(=O)Nc1ccc(C#N)c2c1C1CCC2C1)n1cc(C#CC2CN(c3ccc4c(c3)C(=O)N(C3CCC(=O)NC3=O)C4=O)C2)cn1 (stereo not shown) [Compound 165, N-(8-cyano-1,2,3,4-tetrahydro-1,4-methanonaphthalen-5-yl)-2-(4-((1-(2-(2,6-dioxopiperidin-3-yl)-1,3-dioxoisoindolin-5-yl)azetidin-3-yl)ethynyl)-1H-pyrazol-1-yl)-2-methylpropanamide]

Continued, molecule first:

Structure (SMILES)	IC50 [1] [µM]	IC50 [2] [µM]
CNC(=O)c1cc(C(F)(F)F)ccc1NC(=O)C(C)(C)n1cc(C#CC2CN(c3ccc4c(c3)C(=O)N(C3CCC(=O)NC3=O)C4=O)C2)cn1 (stereo not shown) [Compound 52, 2-(2-(4-((1-(2-(2,6-dioxopiperidin-3-yl)-1,3-dioxoisoindolin-5-yl)azetidin-3-yl)ethynyl)-1H-pyrazol-1-yl)-2-methylpropanamido)-N-methyl-5-(trifluoromethyl)benzamide]	< 1	
Cc1cc(C(F)(F)F)ccc1NC(=O)C(C)(C)n1cc(C#CC2CN(c3ccc4c(c3)C(=O)N(C3CCC(=O)NC3=O)C4=O)C2)cn1 (stereo not shown) [Compound 59]		< 0.05
CC(C)(C(=O)Nc1ccc(C#N)c2ccccc12)n1cc(C#CC2(F)CN(c3ccc4c(c3)C(=O)N(C3CCC(=O)NC3=O)C4=O)C2)cn1 (stereo not shown) [Compound 68, N-(4-cyanonaphthalen-1-yl)-2-(4-(2-(1-(2-(2,6-dioxopiperidin-3-yl)-1,3-dioxo-2,3-dihydro-1H-isoindol-5-yl)-3-fluoroazetidin-3-yl)ethynyl)-1H-pyrazol-1-yl)-2-methylpropanamide]		< 0.05
O=C1CCC(N2C(=O)c3ccc(N4CC(C#Cc5cnn(C6(C(=O)Nc7ccc(C(F)(F)F)cc7Cl)CCCC6)c5)C4)cc3C2=O)C(=O)N1 (stereo not shown) [Compound 69, N-(2-chloro-4-(trifluoromethyl)phenyl)-1-(4-((1-(2-(2,6-dioxopiperidin-3-yl)-1,3-dioxoisoindolin-S-yl)azetidin-3-yl)ethynyl)-1H-pyrazol-1-yl)cyclopentane-1-carboxamide]		< 0.05
O=C1CCC(N2C(=O)c3ccc(N4CC(F)(C#Cc5cnn(C6(C(=O)Nc7ccc(C(F)(F)F)cc7Cl)CCC6)c5)C4)cc3C2=O)C(=O)N1 (stereo not shown) [Compound 71]		< 0.05
O=C1CCC(N2C(=O)c3ccc(N4CC(C#Cc5cnn(C6(C(=O)Nc7ccc(C(F)(F)F)cc7Cl)CC6)c5)C4)cc3C2=O)C(=O)N1 (stereo not shown) [Compound 72, N-(2-chloro-4-(trifluoromethyl)phenyl)-1-(4-((1-(2-(2,6-dioxopiperidin-3-yl)-1,3-dioxoisoindolin-5-yl)azetidin-3-yl)ethynyl)-1H-pyrazol-1-yl)cyclopropane-1-carboxamide]		< 0.05
O=C1CCC(N2C(=O)c3ccc(N4CC(C#Cc5cnn(C6(C(=O)Nc7ccc(C(F)(F)F)c(C8CC8)c7)CCC6)c5)C4)cc3C2=O)C(=O)N1 (stereo not shown) [Compound 75, N-(3-cyclopropyl-4-(trifluoromethyl)phenyl)-1-(4-((1-(2-(2,6-dioxopiperidin-3-yl)-1,3-dioxoisoindolin-5-yl)azetidin-3-yl)ethynyl)-1H-pyrazol-1-yl)cyclobutane-1-carboxamide]		< 0.05
CC(C(=O)Nc1ccc(C#N)c(C(F)(F)F)c1)n1cc(C#CC2CN(c3ccc4c(c3)C(=O)N(C3CCC(=O)NC3=O)C4=O)C2)cn1 (stereo not shown) [Compound 77, N-(4-cyano-3-(trifluoromethyl)phenyl)-2-(4-((1-(2-(2,6-dioxopiperidin-3-yl)-1,3-dioxoisoindolin-5-yl)azetidin-3-yl)ethynyl)-1H-pyrazol-1-yl) propanamide]		< 0.05
N#Cc1ccc(NC(=O)C2(n3cc(C#CC4CN(c5cc6c(cc5F)C(=O)N(C5CCC(=O)NC5=O)C6=O)C4)cn3)CCC2)c2ccccc12 (stereo not shown) [Compound 80]	< 1	
CC(C)(C(=O)Nc1ccc(C#N)c2ccccc12)n1cc(C#CC2CN(c3cc4c(cc3F)C(=O)N(C3CCC(=O)NC3=O)C4=O)C2)cn1 (stereo not shown) [Compound 81]	< 1	
CC(C)(C(=O)Nc1ccc(C#N)cc1Br)n1cc(C#CC2CN(c3ccc4c(c3)C(=O)N(C3CCC(=O)NC3=O)C4=O)C2)cn1 (stereo not shown) [Compound 82, N-(2-bromo-4-cyanophenyl)-2-(4-((1-(2-(2,6-dioxopiperidin-3-yl)-1,3-dioxoisoindolin-5-yl)azetidin-3-yl)ethynyl)-1H-pyrazol-1-yl)-2-methylpropanamide]		< 0.05
O=C1CCC(N2C(=O)c3ccc(N4CCC5(CC4)CC(CN4CCC(c6cnn(C7(C(=O)Nc8ccc(C(F)(F)F)cc8Cl)CCC7)c6)CC4)C5)cc3C2=O)C(=O)N1 (stereo not shown) [Compound 85, N-(2-chloro-4-(trifluoromethyl)phenyl)-1 (4-(1-((7-(2-(2,6-dioxopiperidin-3-yl)-1,3-dioxoisoindolin-5-yl)-7-azaspiro[3.5]nonan-2-yl)methyl)piperidin-4-yl)-1H-pyrazol-1-yl)cyclobutane-1-carboxamide]	< 1	
